Test results from patent publication US4186202A, “Phenyl-pyridylamine derivatives” (priority 1974, dated 1980).
Counter-ions that a name gives are not always drawn.

Columns and labels:
[1] = in vivo; cited from earlier work
[2] = tested on: uptake of 14C-5-hydroxytryptamine; assay: Inhibition of uptake of 14C-5-HT in mouse midbrain slices after in vivo (i.p.) administration; conditions: i.p. half an hour before killing, dose producing 50 percent decrease of active uptake; for ED50: Mus musculus, ip, 0.5 h
Description: (§1) It is not possible by experimental means to induce depressions in laboratory animals. In order to evaluate a possible anti-depressive effect of new substances biochemical-pharmacological test methods must be resorted to. One such method, which seems to give a good indication of the potential anti-depressive effects of the test substances, is described in Europ.
(§2) The test substances were administered intraperitoneally half an hour before the animals were killed. […] The incubation time was 5 minutes with 5 minutes of preincubation before the labelled amines were added. The slices were dissolved in Soluene® and the amounts of radio-active amines taken up were determined by liquid scintillation. […] Active uptake is defined as that part of the radioactive uptake which is inhibited by a high concentration of cocaine.

[3] = tested on: uptake of 14C-5-hydroxytryptamine; assay: Inhibition of uptake of 14C-5-HT in mouse midbrain slices, in vitro; assay type: biochemical; conditions: 5 minutes preincubation, 5 minutes incubation
Description: as §1, §2
In the in vitro method, slices of mouse midbrain were preincubated for 5 minutes with a solution of the compound to be tested and then incubated as described above.

[4] = tested on: uptake of 3H-noradrenaline; assay: Inhibition of uptake of 3H-noradrenaline in mouse midbrain slices after in vivo (i.p.) administration; conditions: ip, at the dose 101 μmole/kg i.p., read-out: inhibition recorded (uptake of 3H-NA, in vivo)
Description: as §2, with “It is not possible by experimental means to induce depressions in laboratory animals. In order to evaluate a possible anti-depressive effect of new substances biochemical-pharmacological test methods must be resorted to. One such method, which seems to give a good indication of the potential anti-depressive effects of the test substances, is described in Europ. […] The test” for “The test”

Compound | antidepressive effect [1] | ED50 [2] [µmol/kg] | EC50 [3] [nM] | Uptake of 14C-5-HT, in vivo ED50 ([2]; 30 min) [μmole/kg i.p.] | inhibition at 101 µmol/kg [4] [%]
CN(C)CC=C(c1ccccc1)c1ccccc1 | have an antidepressive effect | – | – | – | –
CNC/C=C(/c1ccc(Br)cc1)c1cccnc1 [H, Z, oxalate, 3-(4-bromophenyl)-N-methyl-3-(3-pyridyl)-allylamine] | – | 18 | 500 | – | –
CNC/C=C(/c1ccc(Br)cc1)c1cccnc1 [H, Z, hydrochloride, 3-(4-bromophenyl)-N-methyl-3-(3-pyridyl)-allylamine] | – | – | – | 15.2 | 38
CNCC=C(c1ccc(Br)cc1)c1cccnc1 [H, mixture, oxalate, 3-(4-bromophenyl)-N-methyl-3-(3-pyridyl)-allylamine] | – | 32 | 500 | – | –
